In patent US10538567B2, “Compounds as peptidic trigonal GLP1/glucagon/GIP receptor agonists” (priority 2016, dated 2020):
Numbered stars: 1 amine (or outer) side, 2 acyl side, 3 side chain; on linkers, the order of the positions; unused ones are H or OH. Square brackets hold non-standard residues; d marks the D form. Side chains are listed from the residue outwards. Peptide text beside a SMILES is read from it. * marks the point of attachment. γGlu = O=C(O)[C@H](CCC(=O)[*:2])N[*:1]; Palmitoyl = CCCCCCCCCCCCCCCC(=O)*; AEEA = NCCOCCOCC(=O)O; Aib = CC(C)(N)C(=O)O

Assays:
Type in all cases: physicochemical
[1] = Chemical stability assessment, UPLC-UV purity loss in buffer system A; conditions: 1 mg/ml, 25 mM acetate buffer pH 4.5 with m-cresol
Protocol: Prior to the chemical stability measurement of a peptide batch, its purity was determined through UPLC/MS. For stability testing the target concentration was 1 mg pure compound/ml. Therefore solutions from solid samples were prepared in a buffer system with a concentration of 1 mg/mL compound based on the previously determined % purity:
Chemical stability buffer system A) 25 mM acetate buffer pH 4.5, 3 mg/mL L-Methionine, 2.7 mg/mL m-cresol, 18 mg/mL Glycerol 85% Chemical stability buffer system B) 25 mM phosphate buffer pH 6.0, 3 mg/mL L-Methionine, 2.7 mg/mL m-cresol, 18 mg/mL Glycerol 85%
Peptide solutions were filtered through […] pore size and filled into aliquots under aseptic conditions. At starting point, UPLC-UV was performed by injection of 2 μl of the undiluted sample.
For chemical stability testing, aliquots were stored for 28 days at 5 and 40° C. After this time course the samples were centrifuged for 15 min at 2500 RCF. Then 2 μl of the undiluted supernatant were analysed with UPLC-UV.
The chemical stability was rated through the relative loss of purity calculated by the equation: [(purity at starting point)−(purity after 28 days at X° C.)]/(purity at starting point)]*100%
The purity is calculated as
[(peak area peptide)/(total peak area)]*100%
Peptide samples were prepared in Chemical stability buffer system A and the stability was assessed as described in Methods.

[2] = Dynamic light scattering, hydrodynamic radius as surrogate for DLS interaction parameter kD; conditions: for Delta Rh [nm] = Rh5 − Rh1: DLS buffer system A pH 4.5; for Rh1 [nm] c = 1 mg/ml / Rh5 [nm] c = 5 mg/ml: hydrodynamic radius, DLS buffer system A pH 4.5, method C, 25° C.
Source text: A monochromatic and coherent light beam (laser) is used to illuminate the liquid sample. Dynamic Light Scattering (DLS) measures light scattered from particles (1 nm≤radius≤1 μm) that undergo Brownian motion. This motion is induced by collisions between the particles and solvent molecules that themselves are moving due to their thermal energy. The diffusional motion of the particles results in temporal fluctuations of the scattered light [Pecora, R. Dynamic Light Scattering: Applications of Photon Correlation Spectroscopy, Plenum Press, 1985].
The scattered light intensity fluctuations are recorded and transformed into an autocorrelation function. By fitting the autocorrelation curve to an exponential function, the diffusion coefficient D of the particles in solution can be derived. The diffusion coefficient is then used to calculate the hydrodynamic radius Rh (or apparent Stokes radius) through the Stokes-Einstein equation assuming spherical particles. This calculation is defined in ISO 13321 and ISO 22412 [International Standard ISO13321 Methods for Determination of Particle Size Distribution Part 8: Photon Correlation Spectroscopy, International Organisation for Standardisation (ISO) 1996; International Standard ISO22412 Particle Size Analysis—Dynamic Light Scattering, International Organisation for Standardisation (ISO) 2008].
For every peptide solution, the hydrodynamic radius Rh and the diffusion constant D (related via the Stokes-Einstein equation) were determined as an average over triplicates. Both parameters were determined at different peptide concentrations (e.g., Rh1 and D1: 1 mg/ml and Rh5 and D5: 5 mg/ml) in the same buffer system. The difference of these parameters between low and high peptide concentration is a surrogate for the DLS interaction parameter kD. Rh5<Rh1 or D5>D1 correspond to kD>0 and therefore to repulsive inter-particle interactions that result in improved physical (or colloidal) stability.
DLS buffer system A) 25 mM acetate buffer pH 4.5, 3 mg/mL L-Methionine, 2.7 mg/mL m-cresol, 18 mg/mL Glycerol 85%
DLS Method C: DLS measurements were performed on a DynaPro Plate Reader II (Wyatt Technology, Santa Barbara, Calif., US) and using one of the following black, low volume, and non-treated plates: polystyrene 384 assay plate with clear bottom (Corning, N.Y., US), polystyrene 96 assay plate with clear bottom (Corning, N.Y., US), cyclo olefin polymer (COP) 384 assay plate with clear bottom (Aurora, Mont., US), or polystyrene 384 assay plate with clear bottom (Greiner Bio-One, Germany). The data were processed with the Dynamics software provided by Wyatt Technology. Parameters of the particle size distribution were determined with non-negatively constrained least squares (NNLS) methods using DynaLS algorithms. Measurements were taken at 25° C. with an 830 nm laser light source at an angle of 158°.
The hydrodynamic radius Rh of peptide samples was determined at different peptide concentrations (1 mg/ml and 5 mg/ml) in DLS buffer system A using DLS method C as described in Methods as surrogate for the DLS interaction parameter kD.

[3] = Thioflavin T (ThT) assay for physical stability (fibrillation); conditions: 3 mg/ml, 100 mM acetate pH 4.5 with m-cresol, 37° C. shaking
Source text: Low physical stability of a peptide solution may lead to amyloid fibril formation, which is observed as well-ordered, thread-like macromolecular structures in the sample, which eventually may lead to gel formation. Thioflavin T (ThT) is widely used to visualize and quantify the presence of misfolded protein aggregates. [Biancalana et al. (2010) Biochimica et Biophysica Acta. 1804 (7): 1405-1412]. […] Enzymol. 309, 274-284]. The time course for fibril formation often follows the characteristic shape of a sigmoidal curve and can be separated into three regions: a lag phase, a fast growth phase, and a plateau phase.
The typical fibril formation process starts with the lag phase in which the amount of partially folded peptide turned into fibrils is not significant enough to be detected. The lag-time corresponds to the time the critical mass of the nucleus is built. Afterwards, a drastic elongation phase follows and fibril concentration increases rapidly.
Investigations were carried out to determine fibrillation tendencies under stress conditions by shaking at 37° C. within Fluoroskan Ascent FL.
For the tests in Fluoroskan Ascent FL, 200 μL sample were placed into a 96 well mictrotiter plate PS, flat bottom, Greiner Fluotrac No. 655076. Plates were sealed with Scotch Tape (Quiagen). Samples were stressed by continuous cycles of 10 s shaking at 960 rpm and 50 s rest period at 37° C. The kinetic was monitored by measuring fluorescence intensity every 20 minutes.
Peptides were diluted in a buffer system to a final concentration of 3 mg/ml. 20 μL of a 10.1 mM ThT solution in H2O were added to 2 mL of peptide solution to receive a final concentration of 100 μM ThT. For each sample eight replicates were tested.
Tht buffer system A) 100 mM Acetate pH 4.5 including m-cresol (100 mM Natriumacetat trihydrat, pH adjustment using 2N CH3COOH, 2.7 mg/mL m-cresol) Tht buffer system B) 100 mM citrate buffer pH 6.0
Lag time in hours in Thioflavin T (ThT) assay of peptide samples was determined in ThT buffer system A as described in Methods.

SMILES | Chemical stability [relative purity loss 28 days 40° C.] (%) at pH 4.5 [1] [%] | Delta Rh [nm] = Rh5 − Rh1 [2] [nm] | Rh1 [nm] c = 1 mg/ml [2] [nm] | Rh5 [nm] c = 5 mg/ml [2] [nm] | Lag time before increase [3] [h]
CCCCCCCCCCCCCCCC(=O)NCCOCCOCC(=O)N[C@@H](CCC(=O)N[C@@H](CCC(=O)NCCCC[C@H](NC(=O)[C@H](CC(C)C)NC(=O)[C@H](CCCCN)NC(=O)[C@H](CO)NC(=O)[C@H](CC(C)C)NC(=O)[C@H](CC(=O)O)NC(=O)[C@H](CO)NC(=O)[C@@H](NC(=O)[C@H](Cc1ccccc1)NC(=O)[C@@H](NC(=O)CNC(=O)[C@H](Cc1c[nH]cn1)NC(=O)C(C)(C)NC(=O)[C@@H](N)Cc1c[nH]cn1)[C@@H](C)O)[C@@H](C)O)C(=O)N[C@@H](CCC(=O)O)C(=O)N[C@@H](CCC(=O)O)C(=O)N[C@@H](CCC(N)=O)C(=O)N[C@@H](CCCNC(=N)N)C(=O)N[C@@H](CCC(N)=O)C(=O)N[C@@H](CCCCN)C(=O)N[C@@H](CCC(=O)O)C(=O)N[C@@H](Cc1ccccc1)C(=O)N[C@H](C(=O)N[C@@H](CCC(=O)O)C(=O)N[C@@H](Cc1c[nH]c2ccccc12)C(=O)N[C@@H](CC(C)C)C(=O)N[C@@H](CCCCN)C(=O)N[C@@H](C)C(=O)NCC(=O)NCC(=O)N[C@@H](Cc1c[nH]cn1)C(=O)N1CCC[C@H]1C(=O)N[C@@H](CO)C(=O)NC(C)(C)C(=O)N[C@@H](CCCCN)C(=O)N1CCC[C@H]1C(=O)N1CCC[C@H]1C(=O)N1CCC[C@H]1C(=O)N[C@@H](CCCCN)C(N)=O)[C@@H](C)CC)C(=O)O)C(=O)O [SEQ ID NO: 14, H-Aib-H-G-T-F-T-S-D-L-S-K-L-K[gGlu-gGlu-AEEA-Palm]-E-E-Q-R-Q-K-E-F-I-E-W-L-K-A-G-G-H-P-S-Aib-K-P-P-P-K-NH2] (H-H[Aib]HGTFTSDLSKLK([γGlu-γGlu-AEEA-Palmitoyl])EEQRQKEFIEWLKAGGHPS[Aib]KPPPK-NH2) | 8.1 | −0.1 | 3.0 | 2.9 | >45
CCCCCCCCCCCCCCCC(=O)NCCOCCOCC(=O)N[C@@H](CCC(=O)N[C@@H](CCC(=O)NCCCC[C@H](NC(=O)[C@H](CC(C)C)NC(=O)[C@H](CCCCN)NC(=O)[C@H](CO)NC(=O)[C@H](CC(C)C)NC(=O)[C@H](CC(=O)O)NC(=O)[C@H](CO)NC(=O)[C@@H](NC(=O)[C@H](Cc1ccccc1)NC(=O)[C@@H](NC(=O)CNC(=O)[C@H](Cc1c[nH]cn1)NC(=O)C(C)(C)NC(=O)[C@@H](N)Cc1c[nH]cn1)[C@@H](C)O)[C@@H](C)O)C(=O)N[C@@H](CCC(=O)O)C(=O)N[C@@H](CCC(=O)O)C(=O)N[C@@H](CCC(N)=O)C(=O)N[C@@H](CCCNC(=N)N)C(=O)N[C@@H](CCC(N)=O)C(=O)N[C@@H](CCCCN)C(=O)N[C@@H](CCC(=O)O)C(=O)N[C@@H](Cc1ccccc1)C(=O)N[C@H](C(=O)N[C@@H](CCC(=O)O)C(=O)N[C@@H](Cc1c[nH]c2ccccc12)C(=O)N[C@@H](CC(C)C)C(=O)N[C@@H](CCCCN)C(=O)N[C@@H](C)C(=O)N[C@H](C)C(=O)NCC(=O)N[C@@H](Cc1c[nH]cn1)C(=O)N1CCC[C@H]1C(=O)N[C@@H](CO)C(=O)NC(C)(C)C(=O)N[C@@H](CCCCN)C(=O)N1CCC[C@H]1C(=O)N1CCC[C@H]1C(=O)N1CCC[C@H]1C(=O)N[C@@H](CCCCN)C(N)=O)[C@@H](C)CC)C(=O)O)C(=O)O [SEQ ID NO: 15, H-Aib-H-G-T-F-T-S-D-L-S-K-L-K[gGlu-gGlu-AEEA-Palm]-E-E-Q-R-Q-K-E-F-1-E-W-L-K-A-dAla-G-H-P-S-Aib-K-P-P-P-K-NH2] (H-H[Aib]HGTFTSDLSKLK([γGlu-γGlu-AEEA-Palmitoyl])EEQRQKEFIEWLKA[dA]GHPS[Aib]KPPPK-NH2) | 7.2 | −0.4 | 3.0 | 2.6 | >45
